Assay results: ChEMBL document CHEMBL4373738, “Search for new multi-target compounds against Alzheimer's disease among histamine H3 receptor ligands” (Eur J Med Chem, 2020)
Activity calls are given as the source filed them. The calls are words filed in the database; no cut-off is given here.

Experiments:
Histamine H3 receptor [1] = target: T1, Histamine H3 receptor (Homo sapiens, UniProt Q9Y5N1); test: Displacement of [3H]-N-alpha-methylhistamine from human histamine H3 receptor stably expressed in HEK293 cell membrane after 90 mins
[2] = target: Acetylcholinesterase (Electrophorus electricus) (UniProt O42275); test: Inhibition of electric eel AChE using acetylthiocholine iodide as substrate at 10 uM preincubated with enzyme for 5 mins prior to substrate addition measured after 5 mins by Ellman's method relative to control
Acetylcholinesterase [3] = target: T2, Acetylcholinesterase (Electrophorus electricus, UniProt O42275); test: Inhibition of electric eel AChE using acetylthiocholine iodide as substrate preincubated with enzyme for 5 mins prior to substrate addition measured after 5 mins by Ellman's method
Acetylcholinesterase [4] = target: T3, Acetylcholinesterase (Homo sapiens, UniProt P22303); test: Inhibition of recombinant human AChE using acetylthiocholine iodide as substrate preincubated with enzyme for 5 mins prior to substrate addition measured after 5 mins by Ellman's method
[5] = target: Cholinesterase (Equus caballus) (UniProt P81908); test: Inhibition of equine serum BChE using butyrylthiocholine iodide as substrate at 10 uM preincubated with enzyme for 5 mins prior to substrate addition measured after 5 mins by Ellman's method relative to control
Acetylcholinesterase [6] = target: T2, Acetylcholinesterase; test: Non-competitive inhibition of electric eel AChE using acetylthiocholine iodide as substrate by Lineweaver-Burk plot analysis
Cholinesterase [7] = target: T4, Cholinesterase (Equus caballus, UniProt P81908); test: Non-competitive inhibition of equine serum BChE using butyrylthiocholine iodide as substrate by Lineweaver-Burk plot analysis
Cholinesterase [8] = target: T4, Cholinesterase
Description: Inhibition of equine serum BChE using butyrylthiocholine iodide as substrate preincubated with enzyme for 5 mins prior to substrate addition measured after 5 mins by Ellman's method

Histamine H3 receptor [9] = target: T1, Histamine H3 receptor; test: Displacement of [125I]Iodoproxyfan from human histamine H3 receptor stably expressed in CHOK1 cells after 60 mins; format: cell-based
Acetylcholinesterase [10] = target: T3, Acetylcholinesterase; test: Non-competitive inhibition of recombinant human AChE using acetylthiocholine iodide as substrate by Lineweaver-Burk plot analysis
Acetylcholinesterase [11] = target: T3, Acetylcholinesterase; test: Non-competitive inhibition of recombinant human AChE using acetylthiocholine iodide as substrate by Cornish-Bowden plot analysis
Histamine H3 receptor [12] = target: T1, Histamine H3 receptor; test: Displacement of [125I]Iodoproxyfan from human histamine H3 receptor stably expressed in HEK293 cells after 60 mins; format: cell-based

T2 sequence (O42275 whole entry): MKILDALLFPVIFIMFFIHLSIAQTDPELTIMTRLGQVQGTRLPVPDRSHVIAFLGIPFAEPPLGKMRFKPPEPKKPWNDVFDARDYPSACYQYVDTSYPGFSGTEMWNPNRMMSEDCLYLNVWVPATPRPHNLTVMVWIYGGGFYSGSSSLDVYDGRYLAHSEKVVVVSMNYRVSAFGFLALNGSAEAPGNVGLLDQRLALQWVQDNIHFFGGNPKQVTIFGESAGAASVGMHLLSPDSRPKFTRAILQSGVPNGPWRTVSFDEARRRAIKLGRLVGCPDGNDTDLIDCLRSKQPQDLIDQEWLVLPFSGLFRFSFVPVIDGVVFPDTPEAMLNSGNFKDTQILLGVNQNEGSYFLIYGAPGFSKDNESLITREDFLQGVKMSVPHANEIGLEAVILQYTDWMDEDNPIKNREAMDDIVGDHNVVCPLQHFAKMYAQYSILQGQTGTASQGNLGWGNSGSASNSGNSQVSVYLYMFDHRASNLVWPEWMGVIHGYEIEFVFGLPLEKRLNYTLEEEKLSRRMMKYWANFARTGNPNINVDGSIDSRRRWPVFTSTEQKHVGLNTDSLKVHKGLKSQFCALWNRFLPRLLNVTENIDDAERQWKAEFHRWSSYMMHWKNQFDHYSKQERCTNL
Sequence of Cholinesterase (Equus caballus) (P81908 whole entry): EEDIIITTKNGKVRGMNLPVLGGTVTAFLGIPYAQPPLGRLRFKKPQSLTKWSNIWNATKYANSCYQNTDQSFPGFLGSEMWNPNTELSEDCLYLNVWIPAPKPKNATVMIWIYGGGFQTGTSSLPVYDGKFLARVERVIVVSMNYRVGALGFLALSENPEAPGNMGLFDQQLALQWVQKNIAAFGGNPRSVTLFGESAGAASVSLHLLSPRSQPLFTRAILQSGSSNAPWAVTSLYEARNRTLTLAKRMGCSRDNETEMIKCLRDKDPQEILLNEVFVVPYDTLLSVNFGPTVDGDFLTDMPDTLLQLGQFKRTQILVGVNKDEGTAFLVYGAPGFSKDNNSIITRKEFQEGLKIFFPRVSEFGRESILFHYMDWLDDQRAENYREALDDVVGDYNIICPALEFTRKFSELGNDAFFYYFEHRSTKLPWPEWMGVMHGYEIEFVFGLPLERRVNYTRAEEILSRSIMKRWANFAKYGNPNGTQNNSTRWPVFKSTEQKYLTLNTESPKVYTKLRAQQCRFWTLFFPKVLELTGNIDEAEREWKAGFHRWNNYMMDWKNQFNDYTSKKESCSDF
T4 sequence (P81908 whole entry): as above
Sequence of Acetylcholinesterase (Electrophorus electricus) (O42275 24-633 limits assumed): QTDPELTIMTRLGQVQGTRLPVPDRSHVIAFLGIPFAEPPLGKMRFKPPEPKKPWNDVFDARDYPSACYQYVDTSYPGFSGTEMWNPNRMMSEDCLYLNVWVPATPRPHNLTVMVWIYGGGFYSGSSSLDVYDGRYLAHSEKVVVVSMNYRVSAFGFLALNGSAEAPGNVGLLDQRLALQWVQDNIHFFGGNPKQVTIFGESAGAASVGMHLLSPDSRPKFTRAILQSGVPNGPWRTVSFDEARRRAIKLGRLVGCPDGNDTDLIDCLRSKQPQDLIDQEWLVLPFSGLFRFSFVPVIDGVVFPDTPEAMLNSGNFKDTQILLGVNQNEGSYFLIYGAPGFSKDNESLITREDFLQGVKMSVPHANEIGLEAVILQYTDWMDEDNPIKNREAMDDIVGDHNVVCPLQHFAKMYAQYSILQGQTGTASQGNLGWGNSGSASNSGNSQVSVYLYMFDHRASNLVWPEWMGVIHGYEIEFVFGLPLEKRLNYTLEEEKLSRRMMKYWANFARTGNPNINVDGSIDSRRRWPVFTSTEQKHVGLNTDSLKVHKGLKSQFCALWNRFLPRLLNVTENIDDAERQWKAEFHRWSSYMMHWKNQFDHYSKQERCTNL
T1 sequence (Q9Y5N1 whole entry): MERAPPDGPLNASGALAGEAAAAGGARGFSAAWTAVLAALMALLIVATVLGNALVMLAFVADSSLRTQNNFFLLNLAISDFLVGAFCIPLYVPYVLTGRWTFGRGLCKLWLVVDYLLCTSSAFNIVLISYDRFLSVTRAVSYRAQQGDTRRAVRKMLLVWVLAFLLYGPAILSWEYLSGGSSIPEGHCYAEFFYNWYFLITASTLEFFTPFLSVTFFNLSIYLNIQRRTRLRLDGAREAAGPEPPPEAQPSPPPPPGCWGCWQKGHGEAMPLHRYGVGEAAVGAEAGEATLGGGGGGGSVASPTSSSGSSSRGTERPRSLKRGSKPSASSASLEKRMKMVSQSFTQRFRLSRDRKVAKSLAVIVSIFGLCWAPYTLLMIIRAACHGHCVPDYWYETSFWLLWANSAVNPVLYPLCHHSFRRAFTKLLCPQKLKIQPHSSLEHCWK
T3 sequence (P22303 whole entry): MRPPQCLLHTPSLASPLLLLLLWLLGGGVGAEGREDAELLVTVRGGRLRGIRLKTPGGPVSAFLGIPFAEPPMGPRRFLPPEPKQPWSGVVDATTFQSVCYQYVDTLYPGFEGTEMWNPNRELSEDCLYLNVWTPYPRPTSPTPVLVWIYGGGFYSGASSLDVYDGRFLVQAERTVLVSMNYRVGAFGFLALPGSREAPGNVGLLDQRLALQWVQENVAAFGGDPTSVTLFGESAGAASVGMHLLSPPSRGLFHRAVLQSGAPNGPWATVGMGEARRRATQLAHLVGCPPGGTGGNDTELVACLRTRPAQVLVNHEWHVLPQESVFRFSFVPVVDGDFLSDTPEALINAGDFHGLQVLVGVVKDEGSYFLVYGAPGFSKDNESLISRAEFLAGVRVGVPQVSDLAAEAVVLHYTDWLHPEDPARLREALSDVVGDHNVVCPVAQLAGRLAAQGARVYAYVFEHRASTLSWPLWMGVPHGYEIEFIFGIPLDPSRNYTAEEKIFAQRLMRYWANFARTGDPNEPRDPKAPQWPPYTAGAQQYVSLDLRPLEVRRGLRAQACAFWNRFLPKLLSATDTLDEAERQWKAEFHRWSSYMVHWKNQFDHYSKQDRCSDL

Structure (SMILES) | Ki (Histamine H3 receptor [1]) | inhibition [2] | IC50 (Acetylcholinesterase [3]) | inhibition [5] | IC50 (Cholinesterase [8]) | Ki (Histamine H3 receptor [9]) | also measured
Cc1ccc2oc(-c3ccc(OCCCCCCN4CCCCCC4)cc3)cc(=O)c2c1 | 160 nM | 95.9% | 460 nM | 99.5% | 440 nM |  | IC50 (Acetylcholinesterase [4]): 480 nM; Ki (Acetylcholinesterase [6]): 176 nM; Ki (Cholinesterase [7]): 281 nM
CCc1ccc(OCCCCCCN2CCC(C)CC2)cc1 | 181 nM | 23.5% |  | 75.1% | 3920 nM |  | 
Clc1ccc(CCCOCCCN2CCCCC2)cc1 |  | 3.04% |  | 55.7% |  |  | 
CCc1ccc(OCCCCCCN2CCCCCC2)cc1 | 84.3 nM | 30.8% |  | 85.7% | 1900 nM |  | 
c1ccc(CCCOCCCN2CCN(Cc3ccccc3)CC2)cc1 |  | 18.8% |  | 33.9% |  | > 1000 nM | 
C(=C\c1ccccc1)/CN1CCN(CCCOCCCc2ccccc2)CC1 |  | 0% |  | 37.8% |  | 690 nM | 
Cc1ccc2oc(-c3ccc(OCCCCCCN4CCCCC4)cc3)cc(=O)c2c1 | 228 nM | 95.6% | 500 nM | 99.6% | 760 nM |  | IC50 (Acetylcholinesterase [4]): 360 nM; Ki (Acetylcholinesterase [10]): 129 nM; inhibition (Acetylcholinesterase [11]): Active
O=C(c1ccc(OCCCN2CCN(C/C=C/c3ccccc3)CC2)cc1)C1CC1 |  | 8.85% |  | 38.4% |  | 83 nM | 
CC1CCCN(CCCCCCOc2ccc3c(c2)C(=O)CC(c2ccccc2)O3)C1 (centres undefined) | 523 nM | 91.5% | 800 nM | 90.3% | 1900 nM |  | 
O=C(c1ccccc1Cl)N1CCN(CCCOCC2CCC2)CC1 |  | 0% |  | 0% |  | > 1000 nM | 
O=C(c1ccc(OCCCN2CCN(c3ccccc3)CC2)cc1)C1CC1 |  | 7.58% |  | 11.2% |  |  | Ki (Histamine H3 receptor [12]): 111 nM
CCOc1ccccc1N1CCN(CCCOCCCc2ccccc2)CC1 |  | 3.36% |  | 46% |  | > 1000 nM | 
Cc1ccc2oc(-c3ccc(OCCCCCCN4CCCC(C)C4)cc3)cc(=O)c2c1 (centres undefined) | 60 nM | 94% | 800 nM | 99.4% | 1090 nM |  | 
